From patent US20260284002A1, “COMPOSITIONS AND METHODS OF CONTROLLING MAMMALIAN SATIETY” (VitaKey Inc., priority 2023, published 2026)

Assay: Release of linoleic acid in simulated intestinal fluid with 0.2% (w/v) sodium taurocholate
Type: physicochemical
Details: simulated intestinal fluid 37° C. with 0.2% (w/v) sodium taurocholate; FIG. 25B
Procedure: A mixture of 40% (w/w) linoleic acid, 30% (w/w) 27-Stearine, and 30% (w/w) CITREM was heated to 80° C. while stirring to allow for complete mixing, followed by cooling at 4° C. for 1 hour. […] Formulated linoleic acid microparticles were added to 3 of these 6 tubes, while unformulated linoleic acid was added to the remaining 3 tubes.

SMILES: CCCCC/C=C\C/C=C\CCCCCCCC(=O)O [unformulated linoleic acid, linoleic acid]
- emulsification in bile-salt rich simulated intestinal fluid: rapidly emulsified
